Test results taken from US20220225910A1, “Modulating Electron Transfer Kinetics in E-DNA-type Sensors” (The Regents of the University of California, priority 2019, published 2022).
Like-named read-outs stand apart in the source and are kept apart here. {C6SH} = six-carbon thiol for deposition on gold; {MB} = methylene blue redox reporter

Assays:
[1] = E-AB sensor titration curves in working buffer (square wave voltammetry); assay type: binding; settings: simple buffered solution
Protocol: Electrode functionalization. […] This was then dissolved in “assembling buffer” (10 mM Na2HPO4 with 1 M NaCl and 1 mM MgCl2 at pH 7.3) at a final concentration of 500 nM. The electrochemically cleaned gold electrodes were then immersed in 200 μL of this solution for 1 hour in the dark. Following this the electrode surface was rinsed with distilled water and incubated overnight at 4° C. in assembling buffer containing 5 mM 6-mercaptohexanol, followed by a further rinse with distilled water before use. […] These were then dissolved in buffer (10 mM Na2HPO4 with 1 M NaCl and 1 mM MgCl2 at pH 7.3) using different ratio of the two DNA probes. The total oligonucleotide concentration was kept constant at 500 nM to maintain a constant DNA probes packing density. The electrochemically cleaned gold electrodes were then immersed in 200 μL of this solution composed of two DNA probes for 1 hour in the dark. Following this step, the electrode surface was rinsed with distilled water and incubated overnight at 4° C. in assembling buffer containing 5 mM 6-mercaptohexanol, followed by a further rinse with distilled water before use. In-vitro measurements. Electrochemical measurements were performed at room temperature using a CH[…] potentiostat with a CHI684 Multiplexer (CH Instruments, Austin, Tex.) and a standard three-electrode cell containing a platinum counter electrode and a Ag/AgCl (3 M KCl) reference electrode. […] Titration curves. […] Using the values estimated from the previous fitting procedure the raw signal current was converted in signal change % (C%) using the following equation: […]

[2] = E-AB sensor binding curves in flowing undiluted whole blood
Protocol: Titration curves. Experimental titration curves were performed in 10 mL of working buffer (137 mM NaCl, KCl 2.7 mM, Na2HPO4 10 mM, KH2PO4 1.8 mM at pH 7.3) using three E-AB sensors modified with the oligonucleotide probe and using a SWV frequency of 10 and 120 Hz.
The binding curves performed in whole blood were conducted following the previous described experimental approach but using a closed-loop system with a continuous flow of whole blood (total volume of 20 mL at 1 mL/s) through a circulator pump.

[3] = Square wave voltammetry frequency vs signal change (%); assay type: binding; settings: aptamer alone on sensor
Text: Square wave voltammetry frequency vs signal change (%) plot. […] Then the estimated signal change (%) was plotted in function of the relative square wave frequency.

[4] = Solution binding of the unmodified aptamer, using the intrinsic fluorescence of irinotecan; settings: unmodified aptamer free in solution, read-out: dissociation constant
[5] = Sensor equilibration time; assay type: binding; settings: in buffer, clinically relevant concentrations, 500 Hz
Protocol: Sensor equilibration time. The sensor's equilibration time was determined using the above experimental approach and interrogating the sensor every 5 s in working buffer and using a SWV frequency of 500 Hz. […] The observed signal change was fitted to a single exponential decay to obtain the equilibration time constant of the sensor.

[6] = test system: E-AB sensor; experiment: In vivo control injections, sensor specificity; design: species or system Sprague-Dawley rats; settings: camptothecin E-AB sensor in live rat, KDM
Text: FIGS. 6A, 6B, and 6C. FIG. 6A depicts signals collected at high (120 Hz) and low (10 Hz) frequencies by a sensor of the invention. […] FIG. 6B: taking the difference (KDM) between the normalized high (120 Hz) and low (10 Hz) frequency signals produces a stable baseline.

[7] = unstructured 10-base strand; cited from earlier work
[8] = In vivo pharmacokinetic measurement with indwelling E-AB sensor in jugular vein; settings: rat; for distribution rate (a): intravenous
Protocol: In-vivo measurements. All in vivo measurements were performed using a three-electrode setup in which the counter electrodes were made of platinum wire and the reference electrodes were a silver wire coated with a silver chloride film as described above. The measurements carried out in vivo were recorded using a handheld potentiostat from CH Instruments (Model 1242 B). Square Wave Voltammetry (SWV) was performed using a potential window of −0.1 to −0.45 V, a potential step of 0.001 V and 0.05 V amplitude
For in vivo measurements a 30 min sensor baseline was established before the drug infusion. A 3 mL syringe filled with the target drug was connected to the sensor-free catheter (placed in the jugular opposite that in which the sensor is emplaced) and placed in a motorized syringe pump. […] After drug infusion, recordings were taken for up to 1 hour before the next infusion. The real-time plotting and analysis of voltammetric data were carried out with the help of a script written in Python.
Animals. In vivo measurements were performed in male and female Sprague-Dawley rats (4-5 months old) weighing between 300 and 500 g. All animals were pair housed in a standard light cycle room (08:00 on, 20:00 off) and allowed ad libitum access to food and water. For in vivo measurements rats were induced under 5% isoflurane anesthesia in a Plexiglas anesthesia chamber. The rats were then maintained on 2-3% isoflurane gas for the duration of the experiment. A small incision was made above each vein, then each vein was isolated. A small hole was cut into each vein with spring-loaded microscissors. The silastic catheter inserted into the left jugular vein was constructed with a bent steel cannula with a screw-type connector and silastic tubing (11 cm, i.d. 0.64 mm, o.d. 1.19 mm). […]
where A and B are amplitudes, and […] for distribution and elimination, respectively. […] The area under the curve (AUC) was calculated using the parameters A, B, α and β, because integrating the equation 5 from 0 to infinity, it holds: […]
The clearance (ClT) was calculated by the equation: […]

Row | Molecule | signal gain relative to other variants [1] | E-AB sensing performance in whole blood [2] | dependence of gain on square-wave frequency [3] | further results
1 | CA32: truncated camptothecin aptamer: 5′-TCCGGACTTGGGTGGGTGGGTTGGGGTACGGT-3′ (DNA TCCGGACTTGGGTGGGTGGGTTGGGGTACGGT; listed as DNA, chemistry not fully specified) | greatest signal gain | supported high-gain E-AB sensing | only a weak function of square-wave frequency | –
2 | CA40: 40-base truncation of the known camptothecin-binding DNA aptamer; G-quadruplex flanked by a 12-base-pair stem (DNA ACGCTCCGGACTTGGGTGGGTGGGTTGGGGTACGGTGCGT; DNA, 5' {C6SH}, 3' {MB}, backbone not given here; further chemistry not fully specified) | – | – | – | Kd ([4]; listed as parent aptamer): 475 nM; Kd [4]: ~475 nM; gain [2]: about 15%; association and dissociation kinetics, time constants [5]: < 5 s
3 | O=c1[nH]cc(F)c(=O)[nH]1 [5-fluorouracil] | – | – | – | sensor response to control injection [6]: do not produce any measurable sensor response
4 | SEQ ID NO: 8: secondary moiety: unstructured 10-base strand, random sequence of adenines and thymines, reporter-modified (DNA ATTATTTTTT; reporter-modified, reporter and position not given here) | – | – | – | rate of electron transfer [7]: 80 per second
5 | CA40_2MM: camptothecin aptamer, two mismatches: 5′-ACGCTCTGGACTTGGGTGGGTGGGTTGGGGTACGGTGTGT-3′ (DNA ACGCTCTGGACTTGGGTGGGTGGGTTGGGGTACGGTGTGT; listed as DNA, chemistry not fully specified) | greatest signal gain | – | – | –
6 | CA16: camptothecin aptamer, only the G-quadruplex binding pocket: 5′-GGGTGGGTGGGTTGGG-3′ (chemistry not given here) | greatest signal gain | supported high-gain E-AB sensing | only a weak function of square-wave frequency | –
7 | CCc1c2c(nc3ccc(OC(=O)N4CCC(N5CCCCC5)CC4)cc13)-c1cc3c(c(=O)n1C2)COC(=O)[C@]3(O)CC [irinotecan] | – | – | – | variation in CMAX or the rate of the distribution phase between rats ([8]; both, Sprague-Dawley, in vivo, 20 mg/kg): 10-20%; distribution rate (a) ([8]; 10 mg kg (first value)): 0.58 ± 0.07 min; distribution rate (a) ([8]; 20 mg kg (second value)): 0.48 min
8 | CA28: truncated camptothecin aptamer: 5′-CGGACTTGGGTGGGTGGGTTGGGGTACG-3′ (DNA CGGACTTGGGTGGGTGGGTTGGGGTACG; listed as DNA, chemistry not fully specified) | greatest signal gain | supported high-gain E-AB sensing | only a weak function of square-wave frequency | –
